Data taken from patent publication US20200215009A1, “Optimized Solution for the Treatment of Alzheimer's, Stroke, Cardiovascular and other Amyloid Related Diseases” (priority 2017, published 2020).

Tests used:
L68Q cystatin C = target: T1, L68Q cystatin C (Homo sapiens, UniProt P01034, L94Q); experiment: Preliminary trial of N-acetylcysteine in HCCAA patients expressing L68Q cystatin C, monitored by biopsy; type: in vivo
T1 construct: confirmed by genetic screen to express L68Q cystatin C; from tissue; host or cells: HCCAA patients; plaques and aggregated protein observed on biopsy
T1 sequence (P01034 27-146 L94Q): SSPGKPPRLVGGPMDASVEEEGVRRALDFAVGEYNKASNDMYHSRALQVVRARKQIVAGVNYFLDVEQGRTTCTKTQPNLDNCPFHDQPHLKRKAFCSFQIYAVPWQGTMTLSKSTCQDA
From the text: Three persons who had been identified through characteristic HCCAA symptoms confirmed by genetic screen to express L68Q cystatin C agreed to participate in a preliminary trial with a prototype drug to support antioxidant and other effects of GSH. N-acetylcysteine was used as a GSH-support/anti-cystatin-C-polymerization archetypical drug for conceptual proof and support of the hypotheses supporting this invention. […] One patient fully complied with the prescribed protocol. Two patients were only partially compliant. The fully compliant patient presented with a 50% reduction in plaques observed on biopsy.
Treatments are continuing, augmented by confirmatory/advisory biopsies. Biopsy intervals may be approximately weekly, but longer intervals are envisioned as sufficient to monitor effects and dosages and to encourage compliance in testing and treatment maintenance. For example, biopsy intervals may be weekly, biweekly, monthly, bimonthly, quarterly, semi-annual, annual, etc. Biopsy appointments may be used both for treatment/disease monitoring, but also to maintain patient attention and interaction. Medical advisory panels and insurance issues may also be considered in determining the frequency and type(s) of biopsies.

cellular glutathione = conditions: dose of about 22-65 mg/kg; cited from earlier work

Row | Compound | disease arrest (L68Q cystatin C; all three HCCAA patients (one fully compliant, two partially compliant)) | reduction in plaques observed on biopsy (L68Q cystatin C; fully compliant patient) [%] | reduction of aggregated protein previously observed (L68Q cystatin C; one of the two partially compliant patients) | change in cellular glutathione shortly after administration (cellular glutathione) | duration of effect, waning in plasma post administration (cellular glutathione) [h]
1 | CC(=O)N[C@@H](CS)C(=O)O [N-acetylcysteine] | disease arrest | 50 | significant reduction |  | 
2 | O=C1N[C@H](C(=O)O)CS1 [OTC, L-2-oxothiazolidine-4-carboxolate] |  |  |  | double | ≤ 8
